In ChEMBL document CHEMBL1275533, “In vitro antibacterial activity of vertilmicin and its susceptibility to modifications by the recombinant AAC6'-APH2'' enzyme” (2008):
Active and inactive are the calls of the source.

What was measured:
Morganella morganii [1] = assay: Antibacterial activity against gentamicin-resistant Morganella morganii clinical isolate assessed as susceptible isolates after 18 hrs by agar dilution method; assay type: functional
Staphylococcus aureus [2] = assay: Antibacterial activity against gentamicin-resistant Staphylococcus aureus clinical isolate after 18 hrs by agar dilution method; assay type: functional
Morganella morganii [3] = assay: Antibacterial activity against non-gentamicin-resistant Morganella morganii clinical isolate assessed as susceptible isolates after 18 hrs by agar dilution method; assay type: functional
Morganella morganii [4] = assay: Antibacterial activity against gentamicin-resistant Morganella morganii clinical isolate after 18 hrs by agar dilution method; assay type: functional
Pseudomonas aeruginosa [5] = assay: Antibacterial activity against non-gentamicin-resistant Pseudomonas aeruginosa clinical isolate after 18 hrs by agar dilution method; assay type: functional
Klebsiella pneumoniae [6] = assay: Antibacterial activity against non-gentamicin-resistant Klebsiella pneumoniae clinical isolate after 18 hrs by agar dilution method; assay type: functional
Enterococcus faecalis [7] = assay: Antibacterial activity against gentamicin-resistant Enterococcus faecalis clinical isolate after 18 hrs by agar dilution method; assay type: functional
Pseudomonas aeruginosa [8] = assay: Antibacterial activity against non-gentamicin-resistant Pseudomonas aeruginosa clinical isolate assessed as susceptible isolates after 18 hrs by agar dilution method; assay type: functional
Citrobacter freundii [9] = assay: Antibacterial activity against gentamicin-resistant Citrobacter freundii clinical isolate assessed as susceptible isolates after 18 hrs by agar dilution method; assay type: functional
Klebsiella pneumoniae [10] = assay: Antibacterial activity against gentamicin-resistant Klebsiella pneumoniae clinical isolate assessed as susceptible isolates after 18 hrs by agar dilution method; assay type: functional
Staphylococcus aureus [11] = assay: Antibacterial activity against non-gentamicin-resistant Staphylococcus aureus clinical isolate after 18 hrs by agar dilution method; assay type: functional
Escherichia coli [12] = assay: Antibacterial activity against non-gentamicin-resistant Escherichia coli clinical isolate after 18 hrs by agar dilution method; assay type: functional
[13] = test system: Staphylococcus epidermidis; assay: Antibacterial activity against gentamicin-resistant Staphylococcus epidermidis clinical isolate assessed as susceptible isolates after 18 hrs by agar dilution method; assay type: functional
[14] = test system: Acinetobacter calcoaceticus; assay: Antibacterial activity against gentamicin-resistant Acinetobacter calcoaceticus clinical isolate assessed as susceptible isolates after 18 hrs by agar dilution method; assay type: functional
Pseudomonas sp. [15] = assay: Antibacterial activity against non-gentamicin-resistant Pseudomonas spp. clinical isolate assessed as susceptible isolates after 18 hrs by agar dilution method; assay type: functional
Citrobacter koseri [16] = assay: Antibacterial activity against non-gentamicin-resistant Citrobacter diversus clinical isolate assessed as susceptible isolates after 18 hrs by agar dilution method; assay type: functional
Haemophilus influenzae = assay: Antibacterial activity against non-gentamicin-resistant Haemophilus influenzae clinical isolate after 18 hrs by agar dilution method; assay type: functional
Citrobacter freundii [17] = assay: Antibacterial activity against gentamicin-resistant Citrobacter freundii clinical isolate after 18 hrs by agar dilution method; assay type: functional
Providencia rettgeri [18] = assay: Antibacterial activity against gentamicin-resistant Proteus rettgeri clinical isolate assessed as susceptible isolates after 18 hrs by agar dilution method; assay type: functional
Morganella morganii [19] = assay: Antibacterial activity against non-gentamicin-resistant Morganella morganii clinical isolate after 18 hrs by agar dilution method; assay type: functional
Pseudomonas sp. [20] = assay: Antibacterial activity against non-gentamicin-resistant Pseudomonas spp. clinical isolate after 18 hrs by agar dilution method; assay type: functional
Providencia rettgeri [21] = assay: Antibacterial activity against non-gentamicin-resistant Proteus rettgeri clinical isolate assessed as susceptible isolates after 18 hrs by agar dilution method; assay type: functional
Klebsiella aerogenes [22] = assay: Antibacterial activity against non-gentamicin-resistant Enterobacter aerogenes clinical isolate after 18 hrs by agar dilution method; assay type: functional
Enterobacter cloacae [23] = assay: Antibacterial activity against gentamicin-resistant Enterobacter cloacae clinical isolate assessed as susceptible isolates after 18 hrs by agar dilution method; assay type: functional
[24] = test system: Staphylococcus epidermidis; assay: Antibacterial activity against gentamicin-resistant Staphylococcus epidermidis clinical isolate after 18 hrs by agar dilution method; assay type: functional
Escherichia coli [25] = assay: Antibacterial activity against non-gentamicin-resistant Escherichia coli clinical isolate assessed as susceptible isolates after 18 hrs by agar dilution method; assay type: functional
[26] = test system: Haemophilus parainfluenzae; assay: Antibacterial activity against non-gentamicin-resistant Haemophilus parainfluenzae clinical isolate after 18 hrs by agar dilution method; assay type: functional
Proteus mirabilis [27] = assay: Antibacterial activity against gentamicin-resistant Proteus mirabilis clinical isolate after 18 hrs by agar dilution method; assay type: functional
Proteus mirabilis [28] = assay: Antibacterial activity against non-gentamicin-resistant Proteus mirabilis clinical isolate after 18 hrs by agar dilution method; assay type: functional
Citrobacter freundii [29] = assay: Antibacterial activity against non-gentamicin-resistant Citrobacter freundii clinical isolate after 18 hrs by agar dilution method; assay type: functional
Serratia marcescens = assay: Antibacterial activity against gentamicin-resistant Serratia marcescens clinical isolate assessed as susceptible isolates after 18 hrs by agar dilution method; assay type: functional
Citrobacter koseri [30] = assay: Antibacterial activity against gentamicin-resistant Citrobacter diversus clinical isolate after 18 hrs by agar dilution method; assay type: functional
Pseudomonas aeruginosa [31] = assay: Antibacterial activity against gentamicin-resistant Pseudomonas aeruginosa clinical isolate after 18 hrs by agar dilution method; assay type: functional
Proteus mirabilis [32] = assay: Antibacterial activity against non-gentamicin-resistant Proteus mirabilis clinical isolate assessed as susceptible isolates after 18 hrs by agar dilution method; assay type: functional
Klebsiella aerogenes [33] = assay: Antibacterial activity against non-gentamicin-resistant Enterobacter aerogenes clinical isolate assessed as susceptible isolates after 18 hrs by agar dilution method; assay type: functional
Citrobacter koseri [34] = assay: Antibacterial activity against non-gentamicin-resistant Citrobacter diversus clinical isolate after 18 hrs by agar dilution method; assay type: functional
Klebsiella aerogenes [35] = assay: Antibacterial activity against gentamicin-resistant Enterobacter aerogenes clinical isolate assessed as susceptible isolates after 18 hrs by agar dilution method; assay type: functional
[36] = test system: Acinetobacter calcoaceticus; assay: Antibacterial activity against gentamicin-resistant Acinetobacter calcoaceticus clinical isolate after 18 hrs by agar dilution method; assay type: functional
Enterobacter cloacae [37] = assay: Antibacterial activity against gentamicin-resistant Enterobacter cloacae clinical isolate after 18 hrs by agar dilution method; assay type: functional
Enterobacter cloacae [38] = assay: Antibacterial activity against non-gentamicin-resistant Enterobacter cloacae clinical isolate after 18 hrs by agar dilution method; assay type: functional
Pseudomonas aeruginosa [39] = assay: Antibacterial activity against gentamicin-resistant Pseudomonas aeruginosa clinical isolate assessed as susceptible isolates after 18 hrs by agar dilution method; assay type: functional
Escherichia coli [40] = assay: Antibacterial activity against gentamicin-resistant Escherichia coli clinical isolate after 18 hrs by agar dilution method; assay type: functional
Staphylococcus aureus [41] = assay: Antibacterial activity against gentamicin-resistant Staphylococcus aureus clinical isolate assessed as susceptible isolates after 18 hrs by agar dilution method; assay type: functional
Providencia rettgeri [42] = assay: Antibacterial activity against non-gentamicin-resistant Proteus rettgeri clinical isolate after 18 hrs by agar dilution method; assay type: functional
Enterococcus faecalis [43] = assay: Antibacterial activity against gentamicin-resistant Enterococcus faecalis clinical isolate assessed as susceptible isolates after 18 hrs by agar dilution method; assay type: functional, organism-based

GENTAMICIN
16 µg/mL: MIC50 [24]
98.1%: Activity (Klebsiella aerogenes [33])
2 µg/mL: MIC50 (Haemophilus influenzae) | MIC90 (Haemophilus influenzae) | MIC50 (Pseudomonas sp. [20]) | MIC50 [26]
> 128 µg/mL: MIC90 (Morganella morganii [4]) | MIC50 (Enterococcus faecalis [7]) | MIC90 (Enterococcus faecalis [7]) | MIC90 [24] | MIC90 (Proteus mirabilis [27]) | MIC50 (Citrobacter koseri [30]) | MIC90 (Citrobacter koseri [30]) | MIC50 (Pseudomonas aeruginosa [31]) | MIC90 (Pseudomonas aeruginosa [31]) | MIC50 [36] | MIC90 [36] | MIC50 (Enterobacter cloacae [37]) | MIC90 (Enterobacter cloacae [37]) | MIC90 (Escherichia coli [40])
65.6%: Activity (Pseudomonas aeruginosa [8])
inactive: Activity (Enterococcus faecalis [43])
84.6%: Activity (Providencia rettgeri [21])
8 µg/mL: MIC90 (Pseudomonas aeruginosa [5]) | MIC90 (Staphylococcus aureus [11]) | MIC90 (Morganella morganii [19]) | MIC90 (Pseudomonas sp. [20]) | MIC90 (Providencia rettgeri [42])
0.5 µg/mL: MIC90 (Klebsiella pneumoniae [6]) | MIC90 (Klebsiella aerogenes [22]) | MIC50 (Proteus mirabilis [28]) | MIC90 (Citrobacter koseri [34]) | MIC90 (Enterobacter cloacae [38])
0.125 µg/mL: MIC50 (Staphylococcus aureus [11])
4 µg/mL: MIC50 (Pseudomonas aeruginosa [5]) | MIC90 [26] | MIC50 (Providencia rettgeri [42])
64 µg/mL: MIC50 (Citrobacter freundii [17]) | MIC50 (Escherichia coli [40])
32 µg/mL: MIC50 (Staphylococcus aureus [2])
0.25 µg/mL: MIC50 (Klebsiella pneumoniae [6]) | MIC (Escherichia coli [12]) | MIC50 (Klebsiella aerogenes [22]) | MIC50 (Citrobacter freundii [29]) | MIC50 (Citrobacter koseri [34]) | MIC50 (Enterobacter cloacae [38])
1 µg/mL: MIC90 (Escherichia coli [12]) | MIC90 (Proteus mirabilis [28]) | MIC90 (Citrobacter freundii [29])
0%: Activity (Morganella morganii [1]) | Activity (Citrobacter freundii [9]) | Activity (Klebsiella pneumoniae [10]) | Activity [13] | Activity [14] | Activity (Providencia rettgeri [18]) | Activity (Enterobacter cloacae [23]) | Activity (Serratia marcescens) | Activity (Klebsiella aerogenes [35]) | Activity (Pseudomonas aeruginosa [39]) | Activity (Staphylococcus aureus [41])
81.8%: Activity (Pseudomonas sp. [15])
96.8%: Activity (Proteus mirabilis [32])
128 µg/mL: MIC90 (Staphylococcus aureus [2]) | MIC50 (Morganella morganii [4]) | MIC90 (Citrobacter freundii [17]) | MIC50 (Proteus mirabilis [27])
76%: Activity (Morganella morganii [3])
100%: Activity (Citrobacter koseri [16]) | Activity (Escherichia coli [25])

NCC[C@H](O)C(=O)N[C@@H]1C[C@H](N)[C@@H](O[C@H]2O[C@H](CN)[C@@H](O)[C@H](O)[C@H]2O)[C@H](O)[C@H]1O[C@H]1O[C@H](CO)[C@@H](O)[C@H](N)[C@H]1O [AMIKACIN]
85.3%: Activity (Pseudomonas aeruginosa [39])
83.3%: Activity (Morganella morganii [1])
> 128 µg/mL: MIC90 (Enterococcus faecalis [7]) | MIC90 (Proteus mirabilis [27]) | MIC90 [36]
32 µg/mL: MIC90 (Citrobacter freundii [17]) | MIC50 (Citrobacter koseri [30]) | MIC90 (Pseudomonas aeruginosa [31]) | MIC90 (Enterobacter cloacae [37]) | MIC90 (Providencia rettgeri [42])
inactive: Activity (Enterococcus faecalis [43])
1 µg/mL: MIC50 (Morganella morganii [4]) | MIC50 (Klebsiella pneumoniae [6]) | MIC90 (Klebsiella pneumoniae [6]) | MIC50 (Staphylococcus aureus [11]) | MIC50 (Escherichia coli [12]) | MIC50 (Morganella morganii [19]) | MIC50 (Klebsiella aerogenes [22]) | MIC50 (Citrobacter koseri [34]) | MIC50 (Escherichia coli [40])
82.1%: Activity (Klebsiella pneumoniae [10])
84.6%: Activity (Providencia rettgeri [21])
80.6%: Activity (Staphylococcus aureus [41])
73.1%: Activity [13]
90.9%: Activity (Pseudomonas sp. [15])
30%: Activity (Serratia marcescens)
128 µg/mL: MIC90 (Staphylococcus aureus [2]) | MIC50 (Enterococcus faecalis [7])
48%: Activity [14]
2 µg/mL: MIC90 (Staphylococcus aureus [11]) | MIC90 (Escherichia coli [12]) | MIC50 (Citrobacter freundii [17]) | MIC90 (Morganella morganii [19]) | MIC90 (Klebsiella aerogenes [22]) | MIC50 (Proteus mirabilis [28]) | MIC50 (Citrobacter freundii [29]) | MIC90 (Citrobacter koseri [34]) | MIC50 (Enterobacter cloacae [38]) | MIC50 (Providencia rettgeri [42])
4 µg/mL: MIC90 (Morganella morganii [4]) | MIC50 (Pseudomonas aeruginosa [5]) | MIC50 (Pseudomonas sp. [20]) | MIC50 [24] | MIC50 [26] | MIC50 (Proteus mirabilis [27]) | MIC90 (Proteus mirabilis [28]) | MIC90 (Citrobacter freundii [29]) | MIC90 (Enterobacter cloacae [38]) | MIC90 (Escherichia coli [40])
64 µg/mL: MIC90 [24] | MIC90 (Citrobacter koseri [30])
31.6%: Activity (Citrobacter freundii [9])
96%: Activity (Morganella morganii [3])
8 µg/mL: MIC50 (Staphylococcus aureus [2]) | MIC50 (Haemophilus influenzae) | MIC90 [26] | MIC50 (Pseudomonas aeruginosa [31])
100%: Activity (Pseudomonas aeruginosa [8]) | Activity (Citrobacter koseri [16]) | Activity (Escherichia coli [25]) | Activity (Proteus mirabilis [32]) | Activity (Klebsiella aerogenes [33])
55%: Activity (Klebsiella aerogenes [35])
16 µg/mL: MIC90 (Pseudomonas aeruginosa [5]) | MIC90 (Haemophilus influenzae) | MIC90 (Pseudomonas sp. [20]) | MIC50 [36] | MIC50 (Enterobacter cloacae [37])
63.2%: Activity (Enterobacter cloacae [23])
80%: Activity (Providencia rettgeri [18])
